These are literature values, as cited in patent US8173175B2, “Ethanolic and/or aqueous composition of an ammoniacal solution of alkaline metal salts of azide, mainly sodium and potassium” (priority 2005, dated 2012).

The structures appear in SMILES notation.

One data set concerns catalase. To be noted: grapevine buds (Nir and Lavee 1993); for H2CN2 according to the manufacturer.
For another data set, the system named is grapevine buds. Particulars: Nir and Lavee 1993.

Regarding `Nc1ncn[nH]1` [1,4-triazolamine], the “inhibition of catalase activity” value with catalase is “able of inhibit the catalase activity”. The “effect on the budding” value in the data set with grapevine buds was “does not have any effect on the budding”.

For the molecule `N#CN` [H2CN2, hydrogen cyanamide], in the data set on catalase, the “inhibition of catalase activity” value was “inhibition of the enzyme catalase”. For the setting “EU catalogue”, the “European Union toxicity classification” value is “toxic, harmful compound in contact with the skin and eyes and skin irritant”. In addition, the USEPA toxicity category result (United States Environmental Protection Agency classification) is listed as “category I (acute toxic)”.
